Results: US20260256764A1, “COMPOSITIONS AND METHODS FOR ORAL DELIVERY OF SUSTAINED RELEASE CRYSTALLINE PRX-3140” (NANOPHARMACEUTICS, INC., priority 2023, published 2026)

How the values were obtained:
[1] = Photostability study (ICH Q1B), HPLC; assay type: physicochemical
Protocol: […]. Samples were exposed to ICH photostability guideline Q1B=1.2 million lux hours of cool, white fluorescent light & 200 watt hours/m2 of UVA light at […]. Samples were exposed for 2 days and tested using HPLC.
[…]. The light exposure was performed in a cabinet set at 25 degrees Celsius/60% RH.
[…]. Changes were evident for crystalline fine particle Form I of PRX-3140 potassium salt after exposure to UVA and white light. The sample changed color particularly on the upper exposed surface of the material and there were changes apparent in the HPLC data. […]. The single impurity profile met the specification (0.20) but significant changes were observed. There was an increase in the number of minor impurities, particularly in a region of the chromatogram between RRT 1.5 and 2.1. Total impurities increased from 0.20% in the control sample to 0.770 in the exposed sample. An impurity at RRT 1.83 which was not present before exposure to light was formed at 0.16% in the exposed sample. Other changes included a change in appearance of the material to a sticky solid and an increase in water content to 4.3% w/w.

[2] = test system: more than 50 other receptors including GPCRs, ion channels and receptor tyrosine kinases; assay: binding to other receptors tested
Description: . The specific ligand binding to the receptors is defined as the difference between the total binding and the nonspecific binding determined in the presence of an excess of unlabelled ligand. […]

[3] = Forced degradation study (acid, base, 3% hydrogen peroxide), LC-UV-MS; assay type: physicochemical; conditions: 24 hours; for percent peak area at 250 nm, RRT 1.00 (purity of parent molecule) / percent peak area at 250 nm, RRT 1.05 (PRX-3140b): potassium salt
Protocol: Example 4—Crystalline PRX-3140 Potassium Salt Forced Degradation Study. Crystalline fine particle Form I of PRX-3140 potassium salt was subjected to a forced degradation study using acid, base, or hydrogen peroxide exposure for 24 hours. Samples were neutralized and analyzed using LC-UV-MS.
Sample Preparation: Crystalline fine particle Form I of PRX-3140 potassium salt, 50 mg, was weighed out into a 25 mL volumetric flask and taken to volume with water (2 mg/mL stock). One mL of stock was added to four, 4 mL vials. One mL of either 1N HCl, 1N NaOH, 3% H2O2, or DI Water (control) was added to the appropriate vial, mixed, and stored at room temperature for 24 hours. After storage, the samples of acid and base were neutralized by addition of 1 mL their counter solution. […] Samples were analyzed using LC-UV-MS.
Table 5 lists a comparison for the control, acid, base, and peroxide samples showing percent peak area versus relative retention time (RRT) at 250 nm. While some minor changes can be noted between the control with the acid and base samples, the overall purity (peak area) of the parent molecule is just slightly higher for the acid and base sample. Some of the minor impurities appear to be reacting with the acid or base, potentially reforming to the parent.

[4] = 30% peroxide degradation study; assay type: physicochemical; conditions: 18-hour exposure to 30% hydrogen peroxide; 250 nm
Protocol: […]. Sample was evaporated to dryness and analyzed using LC/UV/MS and NMR analysis. Two major degradants are noted in the LC/UV/MS.
[…]. The solvent is removed under vacuum at RT, then acetonitrile (5 mL) was added to the residue and evaporated to dryness at 40 degrees Celsius. […].
Two milligrams of the sample was weighed into a 4 mL vial. Two mL of 20/80 methanol/water was added to the vial and vortexed vigorously. FIG. 9A is a HPLC chromatogram of the H2O2 sample at 250 nm. Three major peaks are noted, including the parent molecule at 12.5 minutes. […]. Maximums are noted at 220, 250, and 320 nm. Chromatograms for all samples were collected at all three wavelengths with 250 nm as the primary wavelength based on lambda max. FIG. 10A is the UV spectra for the peak at 8.9 minutes. In comparison with the parent molecule, the high-end absorption is absent (320 nm). FIG. 10B is the UV spectra for the peak at 12.9 minutes. […]. An [M+H]+ is noted at 258.0 m/z with [M+H+NH3]+ at 275.1, [M+Na]+ at 280.1, and [2M+Na]+ at 537.1 m/z. It is noted that this is a fragile molecule and required the reduction of the Fragmentor Voltage from 150V down to 70V to see the protonated molecular ion. […] FIG. 11C is the mass spectra of the largest degradation product of PRX-3140b at 12.9 minutes, relative retention time (RRT) of 1.04 (compared to 1.05 in Example 4). […]

[5] = test system: blood glucose; assay: Blood glucose levels after oral PRX-3140 potassium salt; assay type: in vivo, human; conditions: 15 mg orally, single dose, fed conditions, male volunteers
Protocol: Example 18—Blood Glucose Levels of Controls vs. Sustained-Release Oral PRX-3140 Potassium Salt Capsules. A Phase I, single dose escalation study under fed conditions was conducted in male volunteers with PRX-3140 potassium salt at the 15 mg dose level. […] The study was also conducted to examine the effects of PRX-3140 sustained-release capsule administration on the subjects' fasting and postprandial blood glucose concentrations. Subjects were monitored daily for vital signs (including blood pressure, heart rate, respiratory rate, and temperature) and adverse events. In addition, blood was drawn to assess glucose concentration. Glucose was tested within 60 minutes prior to meals in the morning and throughout the day at different timepoints.

[6] = Acid (1N HCl), listed as PRX-3140 Potassium Salt
[7] = Acid (1N HCl), listed as PRX-3140 potassium salt
[8] = Base (1N NaOH), listed as PRX-3140 Potassium Salt
[9] = Base (1N NaOH), listed as PRX-3140 potassium salt
[10] = Control (DI Water), listed as PRX-3140 Potassium Salt
[11] = Control (DI Water), listed as PRX-3140 potassium salt
[12] = H2O2 (3%), listed as PRX-3140 Potassium Salt
[13] = H2O2 (3%), listed as PRX-3140 potassium salt

For `CC(C)n1c(=O)c(C(=O)NCCCN2CCCCC2)c([O-])c2ccsc21.[K+]` [PRX-3140, 6,7-Dihydro-4-hydroxy-7-isopropyl-6-oxo-N-(3-(piperidin-1-yl)propyl)thieno[2,3-b]pyridine-5-carboxamide potassium salt], the assay value ([1]; Exposed Sample (ICH Q1B light, 2 days)) was 94.20 % w/w, the “Water Content - KF” value ([1]; t = 0, listed as PRX-3140 potassium salt, potassium salt) was 0.900 % w/w and the “affinity for more than 50 other receptors tested” value [2] was “no significant affinity”. The “percent peak area at 250 nm, RRT 0.99” value ([3]; Acid (1N HCl)) was 0.07%, the “percent peak area at 250 nm, RRT 1.08” value ([3]; Acid (1N HCl)) was 0.11% and the “percent peak area at 250 nm, RRT 1.11” value ([3]; Acid (1N HCl)) was 0.04%. For the same molecule, the “percent peak area at 250 nm, RRT 1.27” value ([3]; Acid (1N HCl)) was 0.04%, the “percent peak area at 250 nm, RRT 1.34” value ([3]; Acid (1N HCl)) was 0.15% and the “percent peak area at 250 nm, RRT 1.53” value ([3]; Acid (1N HCl)) was 0.43%. The “percent peak area at 250 nm, RRT 1.79” value ([3]; Acid (1N HCl)) was 0.04%, the “percent peak area at 250 nm, RRT 2.51” value ([3]; Acid (1N HCl)) was 0.06% and the “percent peak area at 250 nm, RRT 2.70” value ([3]; Acid (1N HCl)) was 0.13%. For the same molecule, the “percent peak area at 250 nm, RRT 1.00 (purity of parent molecule)” value [3, 6] was 98.94%, the “percent peak area at 250 nm, RRT 1.05 (PRX-3140b)” value (shortened to “percent peak area … (PRX-3140b)”) [3, 6] was less than 0.03% and the “percent peak area at 250 nm, RRT 1.00 (purity of parent molecule)” value [3, 7] was 98.9%. For the same molecule, the “percent peak area … (PRX-3140b)” value [3, 7] was less than 0.03%, the “percent peak area at 250 nm, RRT 0.94” value ([3]; Base (1N NaOH)) was 0.28% and the “percent peak area at 250 nm, RRT 1.08” value ([3]; Base (1N NaOH)) was 0.12%. The “percent peak area at 250 nm, RRT 1.34” value ([3]; Base (1N NaOH)) was 0.16%, the “percent peak area at 250 nm, RRT 1.53” value ([3]; Base (1N NaOH)) was 0.42% and the “percent peak area at 250 nm, RRT 1.79” value ([3]; Base (1N NaOH)) was 0.05%. For the same molecule, the “percent peak area at 250 nm, RRT 2.51” value ([3]; Base (1N NaOH)) was 0.05%, the “percent peak area at 250 nm, RRT 2.70” value ([3]; Base (1N NaOH)) was 0.12% and the “percent peak area at 250 nm, RRT 1.00 (purity of parent molecule)” value [3, 8] was 98.71%. The “percent peak area … (PRX-3140b)” value [3, 8] was less than 0.03%, the “percent peak area at 250 nm, RRT 1.00 (purity of parent molecule)” value [3, 9] was 98.7% and the “percent peak area … (PRX-3140b)” value [3, 9] was less than 0.03%. The “percent peak area at 250 nm, RRT 1.08” value ([3]; Control (DI Water)) was 0.12%, the “percent peak area at 250 nm, RRT 1.11” value ([3]; Control (DI Water)) was 0.04% and the “percent peak area at 250 nm, RRT 1.34” value ([3]; Control (DI Water)) was 0.17%. The “percent peak area at 250 nm, RRT 1.53” value ([3]; Control (DI Water)) was 0.42%, the “percent peak area at 250 nm, RRT 1.71” value ([3]; Control (DI Water)) was 0.23% and the “percent peak area at 250 nm, RRT 1.79” value ([3]; Control (DI Water)) was 0.11%. For the same molecule, the “percent peak area at 250 nm, RRT 1.93” value ([3]; Control (DI Water)) was 0.06%, the “percent peak area at 250 nm, RRT 2.51” value ([3]; Control (DI Water)) was 0.06% and the “percent peak area at 250 nm, RRT 2.70” value ([3]; Control (DI Water)) was 0.18%. The “percent peak area at 250 nm, RRT 1.00 (purity of parent molecule)” value [3, 10] was 98.60%, the “percent peak area … (PRX-3140b)” value [3, 10] was less than 0.03% and the “percent peak area at 250 nm, RRT 1.00 (purity of parent molecule)” value [3, 11] was 98.6%. For the same molecule, the “percent peak area … (PRX-3140b)” value [3, 11] was less than 0.03%, the “percent peak area at 250 nm, RRT 1.00 (purity of parent molecule)” value ([3]; Control (DI Water)) was 98.6% and the “percent peak area at 250 nm, RRT 0.78 (PRX-3140a)” value ([3]; H2O2 (3%)) was 8.49%. For the same molecule, the “percent peak area at 250 nm, RRT 0.82” value ([3]; H2O2 (3%)) was 0.10%, the “percent peak area at 250 nm, RRT 1.08” value ([3]; H2O2 (3%)) was 0.19% and the “percent peak area at 250 nm, RRT 1.27” value ([3]; H2O2 (3%)) was 0.21%. The “percent peak area at 250 nm, RRT 1.34” value ([3]; H2O2 (3%)) was 0.09%, the “percent peak area at 250 nm, RRT 1.42” value ([3]; H2O2 (3%)) was 0.32% and the “percent peak area at 250 nm, RRT 1.53” value ([3]; H2O2 (3%)) was 0.42%. The “percent peak area at 250 nm, RRT 1.79” value ([3]; H2O2 (3%)) was 0.19%, the “percent peak area at 250 nm, RRT 2.70” value ([3]; H2O2 (3%)) was 0.11% and the “percent peak area at 250 nm, RRT 1.00 (purity of parent molecule)” value [3, 12] was 80.57%. For the same molecule, the “percent peak area … (PRX-3140b)” value [3, 12] was 9.06%, the “percent peak area at 250 nm, RRT 1.00 (purity of parent molecule)” value [3, 13] was 80.6% and the “percent peak area … (PRX-3140b)” value [3, 13] was 9.1%. For the same molecule, the “percent peak area at 250 nm, RRT 1.00 (purity of parent molecule)” value ([3]; H2O2 (3%)) was 80.6%, the “purity of the parent molecule PRX-3140” value [4] was 29.6% and the “mean blood glucose level decrease compared to control values” [5] was −19.5%.
